Measured values: patent US20070015813A1, “Treatment of protein folding disorders” (QUEEN'S UNIVERSITY AT KINGSTON, priority 2005, published 2007)

Tests used:
Assay type in all cases: biochemical
[1] = target: T1, Aβ1-40 (Homo sapiens, UniProt P05067); assay: Aβ1-40 disaggregation assay; conditions: compound added after incubating at 37° C. for 46 hrs., ThT fluorescence
T1 construct: Aβ^1-40 (AnaSpec, San Jose, Calif., lots 14212, 34862 and 34889); purchased AnaSpec, San Jose, Calif
Description: Aβ^1-40 was allowed to aggregate under conditions described in Thioflavin T Aggregation Assay except that no DMSO was added initially. After 46 hrs., compound in DMSO or vehicle was added (2 μL) and the fluorescence measured every 15 min. as detailed above. […] FIG. 3 depicts dose-response curves for inhibition of Aβ^1-40 aggregation by 0j and positive control, morin. FIG. 4 depicts the inhibition of Aβ^1-40 aggregation by 0c in “seeded” ThT assay. FIG. 5 depicts disaggregation of Aβ^1-40 by 0c and positive control, morin. After incubating at 37° C. for 46 hrs. 0c, morin or vehicle were added as DMSO solutions (1:100) and the fluorescence measured every 15 min.

[2] = target: T2, Aβ1-42 (Homo sapiens, UniProt P05067); assay: Kinetic Thioflavin T (ThT) aggregation assay of Aβ1-42; conditions: 20 μM Aβ1-42, kinetic ThT assay
T2 construct: Aβ^1-42 (AnaSpec, lot 45685); purchased AnaSpec
Description: Aβ^1-42 (1.0 mg) was either pretreated with HFIP in the same manner as Aβ^1-40 or this step was omitted. After removing HFIP, when appropriate, Aβ^1-42 was dissolved in 1% NH3 (aq.) (200 μL) and sonicated for 1 min. The solution was diluted with Tris-HCl (5.7 mL, 20 mM, pH 7.4), the pH adjusted to 7.4 with concentrated HCl (aq.) and the solution filtered using a syringe filter (0.2 μm). Prior to use in the ThT aggregation assay, the solution was diluted with an equal volume of 8 μM Thioflavin T (ThT) in Tris-HCl (20 mM, pH 7.4, 300 mM NaCl).
(§1) Aliquots (200 μL) of Aβ^1-40, Aβ^1-42, tau441 or α-synuclein with ThT or ThS were added to wells of a black polystyrene 96-well plate, followed by 2 μL of a compound in DMSO (various concentrations), or DMSO alone (controls). For α-synuclein, sodium dodecyl sulfate solution (2.0 μL, 30 mM) was also added to each well to induce aggregation. Incubations were performed in triplicate and were taken to contain 20 μM Aβ^1-40 or Aβ^1-42, 6 μM tau441 or 4 μM α-synuclein. Plates were covered with clear polystyrene lids and incubated at 37° C. in a GENios microplate reader obtained from Tecan Group Limited, Mannedorf, Zurich. For Aβ^1-40, tau441 and α-synuclein, fluorescence readings (λex=450 nm, λem=480 nm) were taken every 15 min., after first shaking at high intensity for 15 sec. and allowing to settle for 10 sec. before each reading. For Aβ^1-42, readings were taken every 5 min.
The absorbance of each compound was measured under the conditions used during testing, though on ten times the scale (2 mL), to ensure no significant quenching interfered with the assay. This step was also used to identify whether compounds were completely soluble under testing conditions.
FIG. 7 depicts inhibition of Aβ^1-42 aggregation by various synthesized bi-aromatic compounds and positive controls morin (Ono K, Yoshiike Y, Takashima A, Hasegawa K, Naiki H, Yamada M. 2003. J Neurochem 87:172-81) and RS-0406 (Walsh D M, Townsend M, Podlisny M B, Shankar G M, Fadeeva J V, Agnaf O E, Hartley D M, Selkoe D J. 2005. J Neurosci 25:2455-62) in the kinetic ThT assay. Same conditions as for Aβ^1-40, FIG. 1. Compound concentrations were 100 μM in (A), 20 μM in (B), except for RS-0406, which was tested at 100 μM, and 20 μM in (C).

[3] = target: T3, α-synuclein (Homo sapiens, UniProt P37840); assay: α-Synuclein aggregation ThT fluorescence assay; conditions: α-Synuclein (6 μM), 10 μM ThT, pH 7.4, 37° C., compound 100 μM or as indicated
T3 construct: purchased rPeptide, Bogart, GA
Description: α-Synuclein (1.0 mg) was dissolved directly in Tris-HCl (11.53 mL, 20 mM, pH 7.4, 100 mM NaCl) containing DTT (5 mM) and ThT (10 μM).
as §1, with “Incubations were performed in triplicate and were taken to contain 20 μM Aβ^1-40 or Aβ^1-42, 6 μM tau441 or 4 μM α-synuclein.” left out
FIG. 12 depicts inhibition of α-synuclein aggregation by synthesized bi-aromatics and positive control morin (K, Yamada M. 2006. J Neurochem 97:105-15). Aggregation conditions: α-Synuclein (6 μM) was incubated in covered black 96-well polystyrene microplates in Tris-HCl (20 mM, pH 7.4), 10 μM ThT, 1% DMSO with compound concentrations of 100 μM (A) or as indicated (B). Plates were heated at 37° C. in a Tecan Genios microplate reader. […] Fluorescence readings: fluorescence was measured every 15 min. […]

T1 sequence (P05067 672-711 limits assumed): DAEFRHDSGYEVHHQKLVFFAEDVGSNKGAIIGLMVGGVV
T2 sequence (P05067 672-713 limits assumed): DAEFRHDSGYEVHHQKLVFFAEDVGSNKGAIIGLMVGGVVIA

Row | disaggregation of Aβ1-40 [1] | inhibition of Aβ1-42 aggregation, as measured by ThT fluorescence [2] | inhibition of α-synuclein aggregation (ThT fluorescence) [3] | SMILES
1 | disaggregation |  |  | O=C(O)c1ccc2[nH]cc(-c3c[nH]c4ccc(Br)cc34)c2c1 [0c, 3-(5-bromo-indol-3-yl)-indole-5-carboxylic Acid]
2 | disaggregation | inhibition | inhibition | O=c1c(O)c(-c2ccc(O)cc2O)oc2cc(O)cc(O)c12 [morin]
